Laboratory results reported in PubChem BioAssay AID248 (DTP/NCI, 2004).
Values joined by “and” are separate entries in the source; they are usually repeats but may differ in a detail not shown here. Equal entries are not always repeated. Toxic doses and inconclusive results are not listed. No stated cut-off is given here; in the data, active means T/C of 150% or more; inactive means T/C below 125%.

System: L1210 leukemia ip in BDF1 mice, survival T/C
Assay: NCI In Vivo Anticancer Drug Screen. Data for tumor model L1210 Leukemia (intraperitoneal) in B6D2F1 (BDF1) mice
Settings: endpoint: mean survival time, higher = longer survival
Summary of the method: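 Antitumor effect is assessed in tumor-bearing animals. Survival in the compound arm is compared with a vehicle-dosed control arm and expressed as their quotient.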

[1] = dose: 100.0 mg/kg/injection, schedule: Q01DX001 (ip), vehicle: carboxymethylcellulose (CMC)
[2] = dose: 200.0 mg/kg/injection, schedule: Q01DX001 (ip), vehicle: carboxymethylcellulose (CMC)
[3] = dose: 100.0 mg/kg/injection, schedule: Q01DX009 (ip), vehicle: saline with Tween-80
[4] = dose: 100.0 mg/kg/injection, schedule: Q01DX009 (ip), vehicle: Klucel (hydroxypropylcellulose) (HPC)
[5] = dose: 200.0 mg/kg/injection, schedule: Q01DX009 (ip), vehicle: Klucel (hydroxypropylcellulose) (HPC)
[6] = dose: 400.0 mg/kg/injection, schedule: Q01DX009 (ip), vehicle: Klucel (hydroxypropylcellulose) (HPC)
[7] = dose: 100.0 mg/kg/injection, schedule: Q01DX001 (ip), vehicle: Klucel (hydroxypropylcellulose) (HPC)
[8] = dose: 200.0 mg/kg/injection, schedule: Q01DX001 (ip), vehicle: Klucel (hydroxypropylcellulose) (HPC)
[9] = dose: 400.0 mg/kg/injection, schedule: Q01DX001 (ip), vehicle: Klucel (hydroxypropylcellulose) (HPC)

Measured: T/C

COc1cc(C#N)ccc1O
inactive: dose: 100.0 mg/kg/injection, schedule: Q01DX009 (ip), vehicle: gum acacia 106 % of control | dose: 100.0 mg/kg/injection, schedule: Q04DX003 (ip), vehicle: gum acacia 103 % of control | dose: 200.0 mg/kg/injection, schedule: Q01DX009 (ip), vehicle: gum acacia 106 % of control | dose: 200.0 mg/kg/injection, schedule: Q04DX003 (ip), vehicle: gum acacia 100 % of control | dose: 400.0 mg/kg/injection, schedule: Q01DX009 (ip), vehicle: gum acacia 90 % of control | dose: 400.0 mg/kg/injection, schedule: Q04DX003 (ip), vehicle: gum acacia 94 % of control

CCOC(=O)C(NC(C)=O)(C(=O)OCC)C(=O)c1ccc(Cl)cc1
inactive: [1] 89 % of control | [2] 94 % of control

COc1ccc(O)c(C=O)c1
inactive: [3] 108 % of control

Cc1ccc(S(=O)(=O)OCCOc2ccc(C(C)(C)CC(C)(C)C)cc2)cc1
inactive: [4] 100 % of control | [5] 101 % of control | [6] 100 % of control

O=C(CNC(=O)NCc1ccccc1)NNC(=O)Nc1cccc(C(F)(F)F)c1
inactive: dose: 50.0 mg/kg/injection, schedule: Q01DX009 (ip), vehicle: saline with Tween-80 102 % of control | [3] 87 % of control | dose: 200.0 mg/kg/injection, schedule: Q01DX009 (ip), vehicle: saline with Tween-80 91 % of control

O=C1OC(c2ccc(F)c3ccccc23)C2CCCCC12 (centres undefined)
inactive: [7] 102 % of control | [8] 102 % of control | [9] 96 % of control

CC(C)CCc1nc2c(c(=O)n(C)c(=O)n2C)n1C
inactive: dose: 50.0 mg/kg/injection, schedule: Q01DX001 (ip), vehicle: carboxymethylcellulose (CMC) 116 % of control | [1] 103 % of control | [2] 103 % of control | dose: 400.0 mg/kg/injection, schedule: Q01DX001 (ip), vehicle: carboxymethylcellulose (CMC) 103 % of control

O=C(O)COc1nc2ccccc2s1
inactive: [4] 95 % of control | dose: 100.0 mg/kg/injection, schedule: Q04DX003 (ip), vehicle: alcohol 105 % of control | [5] 96 % of control | dose: 200.0 mg/kg/injection, schedule: Q04DX003 (ip), vehicle: alcohol 98 % of control | [6] 88 % of control | dose: 400.0 mg/kg/injection, schedule: Q04DX003 (ip), vehicle: alcohol 94 % of control

COCC(=O)Oc1cc(-c2ccc(C)cc2C)c(OC(=O)COC)c(-c2ccc(C)cc2C)c1
inactive: dose: 75.0 mg/kg/injection, schedule: Q04DX003 (ip), vehicle: Klucel (hydroxypropylcellulose) (HPC) 90 % of control | [7] 90 % of control | dose: 150.0 mg/kg/injection, schedule: Q04DX003 (ip), vehicle: Klucel (hydroxypropylcellulose) (HPC) 87 % of control | [8] 91 % of control | dose: 300.0 mg/kg/injection, schedule: Q04DX003 (ip), vehicle: Klucel (hydroxypropylcellulose) (HPC) 93 % of control and 94 % of control | [9] 101 % of control

NC(Cc1cnc(N=Nc2ccc(S(N)(=O)=O)cc2)[nH]1)C(=O)O (centres undefined)
inactive: dose: 50.0 mg/kg/injection, schedule: Q01DX009 (ip), vehicle: Klucel (hydroxypropylcellulose) (HPC) 100 % of control | [4] 93 % of control | [5] 93 % of control

O=C(O)c1cc(Br)c(Cl)c(Br)c1
inactive: dose: 100.0 mg/kg/injection, schedule: Q04DX002 (ip), vehicle: Klucel (hydroxypropylcellulose) (HPC) 100 % of control | dose: 200.0 mg/kg/injection, schedule: Q04DX002 (ip), vehicle: Klucel (hydroxypropylcellulose) (HPC) 100 % of control

Cc1ccc(NC(=O)Nc2cccc3ccccc23)c(C)c1
inactive: dose: 100.0 mg/kg/injection, schedule: Q04DX003 (ip), vehicle: Klucel (hydroxypropylcellulose) (HPC) 91 % of control | [5] 88 % of control | dose: 200.0 mg/kg/injection, schedule: Q04DX003 (ip), vehicle: Klucel (hydroxypropylcellulose) (HPC) 95 % of control | [6] 92 % of control | dose: 400.0 mg/kg/injection, schedule: Q04DX003 (ip), vehicle: Klucel (hydroxypropylcellulose) (HPC) 91 % of control
